Results from patent US10105357B2, “Indication of antibiotic drugs for preparation of cancer inhibition pharmaceutical composition” (LAUNX BIOMEDICAL CO., LTD., priority 2014, dated 2018).
Like-named read-outs stand apart in the source and are kept apart here.

Key:
[1] = system: HI650 (Lung Adenocarcinoma); assay: Cell viability analysis, lung cancer HI650; assay type: cell-based, human; settings: for viability at 10 µM: Homo sapiens, NCI-H1650, 72 h
[2] = system: A375 (Amelanotic Melanoma); assay: Cell viability analysis, skin cancer A375; assay type: cell-based, human; settings: for viability at 10 µM: Homo sapiens, A-375, 72 h
[3] = system: BCC (basal cell carcinoma); assay: Cell viability analysis, skin cancer BCC; assay type: cell-based, human
[4] = system: TSGH-8301 (Urinary Bladder Carcinoma); assay: Cell viability analysis, bladder cancer TSGH-8301; assay type: cell-based, human; settings: for viability at 10 µM: Homo sapiens, 72 h
[5] = system: SAS (Tongue squamous cell carcinoma); assay: Cell viability analysis, tongue cancer SAS; assay type: cell-based, human
BxPC-3 = assay: Cell viability analysis, pancreatic cancer BxPC-3; assay type: cell-based, human
[6] = system: PC3 (p53−) (Prostate Adenocarcinoma); assay: Cell viability analysis, prostate cancer PC3; assay type: cell-based, human; settings: for viability at 10 µM: Homo sapiens, 72 h
[7] = system: HCT116 (p53+) (Colorectal Carcinoma)
TOV-21G = assay: Cell viability analysis, ovarian cancer TOV-21G; assay type: cell-based, human
AsPC-1 = assay: Cell viability analysis, pancreatic cancer AsPC-1; assay type: cell-based, human
[8] = system: HeLa (Cervix Adenocarcinoma); assay: Cell viability analysis, cervical cancer HeLa; assay type: cell-based, human; settings: for viability at 10 µM: Homo sapiens, HeLa, 72 h
cancer cell lines = assay: Cell viability analysis (WST-1) on cancer cell lines; assay type: cell-based, human; settings: drug 10 μM, 72 hours, WST-1; Table 3
[9] = system: A549 (Lung Adenocarcinoma); assay: Cell viability analysis, lung cancer A549; assay type: cell-based, human; settings: for viability at 10 µM: Homo sapiens, A549, 72 h
[10] = system: MKN-45 (Gastric Adenocarcinoma); assay: Cell viability analysis, gastric cancer MKN-45; assay type: cell-based, human; settings: for viability at 10 µM: Homo sapiens, MKN-45, 72 h
[11] = system: 786-O (Renal adenocarcinoma); assay: Cell viability analysis, renal cancer 786-O; assay type: cell-based, human
[12] = system: C-33A (Cervical carcinoma); assay: Cell viability analysis, cervical cancer C-33A; assay type: cell-based, human
[13] = system: HepG2 (Hepatocellular Carcinoma); assay: Cell viability analysis, hepatic cancer HepG2; assay type: cell-based, human; settings: for viability at 10 µM: Homo sapiens, HepG2, 72 h
U-2OS = assay: Cell viability analysis, osteosarcoma U-2OS; assay type: cell-based, human
[14] = system: Hep3B (hepatocellular carcinoma); assay: Cell viability analysis, hepatic cancer Hep3B; assay type: cell-based, human
[15] = system: MCF7 (Mammary Gland, Adenocarcinoma); assay: Cell viability analysis, breast cancer MCF7; assay type: cell-based, human; settings: for viability at 10 µM: Homo sapiens, MCF7, 72 h
[16] = system: LoVo (Colorectal Adenocarcinoma); assay: Cell viability analysis, colon cancer LoVo; assay type: cell-based, human; settings: for viability at 10 µM: Homo sapiens, LoVo, 72 h
T24 = assay: Cell viability analysis, bladder cancer T24; assay type: cell-based, human
[17] = system: AGS (Gastric Adenocarcinoma); assay: Cell viability analysis, gastric cancer AGS; assay type: cell-based, human; settings: for viability at 10 µM: Homo sapiens, 72 h
NIH: OVCAR-3 = assay: Cell viability analysis, ovarian cancer NIH: OVCAR-3; assay type: cell-based, human
[18] = system: MDA-MB-231 (Mammary Gland, Adenocarcinoma); assay: Cell viability analysis, breast cancer MDA-MB-231; assay type: cell-based, human

Cc1cc(C2CCCCC2)n(O)c(=O)c1.NCCO [Ciclopirox ethanolamine]
The results of antibiotic drug inhibiting cancer cell lines (cell viability analysis), H1650 [1]: 53.76 | The results of antibiotic drug inhibiting cancer cell lines (cell viability analysis), A375 [2]: 21.76 | The results of antibiotic drug inhibiting cancer cell lines (cell viability analysis), BCC [3]: 29.08 | The results of antibiotic drug inhibiting cancer cell lines (cell viability analysis), TSGH-8301 [4]: 43.63 | The results of antibiotic drug inhibiting cancer cell lines (cell viability analysis), SAS [5]: 31.98 | The results of antibiotic drug inhibiting cancer cell lines (cell viability analysis), BxPC-3 (BxPC-3): 47.7 | The results of antibiotic drug inhibiting cancer cell lines (cell viability analysis), PC-3 [6]: 54.81 | viability [7]: 29.5% | The results of antibiotic drug inhibiting cancer cell lines (cell viability analysis), TOV-21G (TOV-21G): 28.95 | The results of antibiotic drug inhibiting cancer cell lines (cell viability analysis), AsPC-1 (AsPC-1): 46.57 | The results of antibiotic drug inhibiting cancer cell lines (cell viability analysis), HeLa [8]: 41.02 | inhibition effect on different cancer cell lines (cancer cell lines): significant inhibition effect | The results of antibiotic drug inhibiting cancer cell lines (cell viability analysis), A549 [9]: 23.67 | The results of antibiotic drug inhibiting cancer cell lines (cell viability analysis), MKN-45 [10]: 72.97 | The results of antibiotic drug inhibiting cancer cell lines (cell viability analysis), 786-O [11]: 18.27 | The results of antibiotic drug inhibiting cancer cell lines (cell viability analysis), C-33A [12]: 42.12 | The results of antibiotic drug inhibiting cancer cell lines (cell viability analysis), HepG2 [13]: 102.4 | The results of antibiotic drug inhibiting cancer cell lines (cell viability analysis), U2OS (U-2OS): 51.75 | The results of antibiotic drug inhibiting cancer cell lines (cell viability analysis), Hep3B [14]: 48.66 | The results of antibiotic drug inhibiting cancer cell lines (cell viability analysis), MCF-7 [15]: 53.67 | The results of antibiotic drug inhibiting cancer cell lines (cell viability analysis), LoVo [16]: 65.53 | The results of antibiotic drug inhibiting cancer cell lines (cell viability analysis), T24 (T24): 41.2 | The results of antibiotic drug inhibiting cancer cell lines (cell viability analysis), AGS [17]: 36.59 | The results of antibiotic drug inhibiting cancer cell lines (cell viability analysis), NIH-OVCAR-3 (NIH: OVCAR-3): 66.99 | The results of antibiotic drug inhibiting cancer cell lines (cell viability analysis), MDA-MB231 [18]: 48.29

CC[C@H]1OC(=O)[C@H](C)[C@@H](O[C@H]2C[C@@](C)(OC)[C@@H](O)[C@H](C)O2)[C@H](C)[C@@H](O[C@@H]2O[C@H](C)C[C@H](N(C)C)[C@H]2O)[C@](C)(O)C[C@@H](C)CN(C)[C@H](C)[C@@H](O)[C@]1(C)O [Azithromycin Dihydrate]
viability at 10 µM ([1]; read-out: The results of antibiotic drug inhibiting cancer cell lines (cell viability analysis), H1650, H1650, repeated experiment): 98.6% | viability at 10 µM ([1]; read-out: cell viability (survival rate), H1650, drug 10 μM, 72 hours, WST-1, OD450 nm): 61.3% | viability at 10 µM ([2]; read-out: The results of antibiotic drug inhibiting cancer cell lines (cell viability analysis), A375, A375, repeated experiment): 97.4% | viability at 10 µM ([2]; read-out: cell viability (survival rate), A375, drug 10 μM, 72 hours, WST-1, OD450 nm): 50.8% | viability at 10 µM ([3]; Homo sapiens, 72 h, read-out: The results of antibiotic drug inhibiting cancer cell lines (cell viability analysis), BCC): 70.6% | viability at 10 µM ([4]; read-out: The results of antibiotic drug inhibiting cancer cell lines (cell viability analysis), TSGH-8301, TSGH-8301, repeated experiment): 119% | viability at 10 µM ([4]; read-out: cell viability (survival rate), TSGH, drug 10 μM, 72 hours, WST-1, OD450 nm): 39.4% | viability at 10 µM ([5]; Homo sapiens, 72 h, read-out: The results of antibiotic drug inhibiting cancer cell lines (cell viability analysis), SAS): 50% | viability at 10 µM (BxPC-3; Homo sapiens, BXPC-3, 72 h, read-out: The results of antibiotic drug inhibiting cancer cell lines (cell viability analysis), BxPC-3): 71.3% | viability at 10 µM ([6]; read-out: The results of antibiotic drug inhibiting cancer cell lines (cell viability analysis), PC-3, PC-3, repeated experiment): 97.2% | viability at 10 µM ([6]; read-out: cell viability (survival rate), PC3, drug 10 μM, 72 hours, WST-1, OD450 nm): 43% | viability [7]: 80.7% | viability at 10 µM (TOV-21G; Homo sapiens, TOV21G, 72 h, read-out: The results of antibiotic drug inhibiting cancer cell lines (cell viability analysis), TOV-21G): 89.6% | viability at 10 µM (AsPC-1; Homo sapiens, ASPC1, 72 h, read-out: The results of antibiotic drug inhibiting cancer cell lines (cell viability analysis), AsPC-1): 75.3% | viability at 10 µM ([8]; read-out: The results of antibiotic drug inhibiting cancer cell lines (cell viability analysis), HeLa, repeated experiment): 105% | viability at 10 µM ([8]; read-out: cell viability (survival rate), HeLa, drug 10 μM, 72 hours, WST-1, OD450 nm): 55.6% | inhibition effect on different cancer cell lines (cancer cell lines): significant inhibition effect | viability at 10 µM ([9]; read-out: The results of antibiotic drug inhibiting cancer cell lines (cell viability analysis), A549, A549, repeated experiment): 66.3% | viability at 10 µM ([9]; read-out: cell viability (survival rate), A549, drug 10 μM, 72 hours, WST-1, OD450 nm): 41.4% | viability at 10 µM ([10]; read-out: The results of antibiotic drug inhibiting cancer cell lines (cell viability analysis), MKN-45, MKN-45, repeated experiment): 95.8% | viability at 10 µM ([10]; read-out: cell viability (survival rate), MKN-45, drug 10 μM, 72 hours, WST-1, OD450 nm): 51.2% | viability at 10 µM ([11]; Homo sapiens, 786-0, 72 h, read-out: The results of antibiotic drug inhibiting cancer cell lines (cell viability analysis), 786-O): 91% | viability at 10 µM ([12]; Homo sapiens, C-33-A, 72 h, read-out: The results of antibiotic drug inhibiting cancer cell lines (cell viability analysis), C-33A): 92.6% | viability at 10 µM ([13]; read-out: The results of antibiotic drug inhibiting cancer cell lines (cell viability analysis), HepG2, HepG2, repeated experiment): 91.4% | viability at 10 µM ([13]; read-out: cell viability (survival rate), HepG2, drug 10 μM, 72 hours, WST-1, OD450 nm): 81.1% | viability at 10 µM (U-2OS; Homo sapiens, U2OS, 72 h, read-out: The results of antibiotic drug inhibiting cancer cell lines (cell viability analysis), U2OS): 70.3% | viability at 10 µM ([14]; Homo sapiens, Hep3B, 72 h, read-out: The results of antibiotic drug inhibiting cancer cell lines (cell viability analysis), Hep3B): 109% | viability at 10 µM ([15]; read-out: The results of antibiotic drug inhibiting cancer cell lines (cell viability analysis), MCF-7, MCF-7, repeated experiment): 62.3% | viability at 10 µM ([15]; read-out: cell viability (survival rate), MCF7, drug 10 μM, 72 hours, WST-1, OD450 nm): 36.4% | viability at 10 µM ([16]; read-out: The results of antibiotic drug inhibiting cancer cell lines (cell viability analysis), LoVo, repeated experiment): 79.2% | viability at 10 µM ([16]; read-out: cell viability (survival rate), LoVo, drug 10 μM, 72 hours, WST-1, OD450 nm): 65.3% | viability at 10 µM (T24; Homo sapiens, T-24, 72 h, read-out: The results of antibiotic drug inhibiting cancer cell lines (cell viability analysis), T24): 112% | viability at 10 µM ([17]; read-out: The results of antibiotic drug inhibiting cancer cell lines (cell viability analysis), AGS, repeated experiment): 77.2% | viability at 10 µM ([17]; read-out: cell viability (survival rate), AGS, drug 10 μM, 72 hours, WST-1, OD450 nm): 72.7% | viability at 10 µM (NIH: OVCAR-3; Homo sapiens, OVCAR-3, 72 h, read-out: The results of antibiotic drug inhibiting cancer cell lines (cell viability analysis), NIH-OVCAR-3): 94% | viability at 10 µM ([18]; Homo sapiens, MDA-MB-231, 72 h, read-out: The results of antibiotic drug inhibiting cancer cell lines (cell viability analysis), MDA-MB231): 97.8%
